Our source for the IC50 and Kd values is ChEMBL document CHEMBL4725459, “Novel Pyrazoles as Hemoglobin Modulators for Treating Sickle Cell Disease” (ACS Med Chem Lett, 2020).

Assay [1] in a line: Stabilization of purified human sickle cell hemoglobin at its oxygenated (R) state assessed as reduction in conversion from oxygenated (R, relaxed state) to deoxygenated (T, tense state) under deoxygenating conditions.
Assay [2] is described as follows: Binding affinity to purified human sickle cell hemoglobin by SPR assay.

With `C[C@H](Oc1cc2cc(F)cc(F)c2nc1N)c1ncc(F)cc1-n1cccn1`, the concentration for half-maximal inhibition (IC50) in assay [1] is 3620 nM. The same compound displayed a dissociation constant (Kd) in assay [2] of 45 nM.

Regarding `C[C@H](Oc1cc2cc(F)ccc2nc1N)c1nc(OCCO)ccc1-n1cccn1`, the IC50 in assay [1] was determined as 3830 nM. Moreover, the Kd in assay [2] came out at 44 nM.

Turning to `CC(=O)c1nc2[nH]ncc2cc1-n1cccn1`, the IC50 in assay [1] worked out at 3760 nM. Further, binding in assay [2] was put at a Kd of 36 nM.

On to `C[C@H](Oc1cc2cc(C(N)=O)cc(F)c2nc1N)c1ncc(F)cc1-n1cccn1`, for which the IC50 in assay [1] came to 3930 nM. In assay [2], this compound came in with a dissociation constant Kd of 68 nM.

`C[C@H](Oc1cc2cc(F)ccc2nc1N)c1cc(OCC(=O)O)ccc1-n1cccn1`: in assay [1], the 50% inhibitory concentration (IC50) amounted to 3890 nM. In assay [2], this compound yielded a Kd of 63 nM.

For `C[C@H](Oc1cc2cc(F)ccc2nc1N)c1cc(CCC(=O)O)ccc1-n1cccn1`, in assay [1], the 50% inhibitory concentration (IC50) came out at 3600 nM. In assay [2], the affinity, expressed as Kd, was 188 nM.

A word on the IC50: it is the point on the concentration scale where inhibition reaches its midpoint. In general, Kd refers to the constant that tells how readily two partners part at equilibrium. A low value points to tighter binding.
